Measurements taken from patent US8247211B2, “Glycopeptide antibiotics” (American Cyanamid Company, priority 2001, dated 2012).
Values after ≈ are worked out from the molar mass of the structure shown.

How the values were obtained:
Experiment in all cases: In vitro antibacterial evaluation: minimum inhibitory concentration (MIC), broth dilution method
Type in all cases: cell-based
Escherichia coli = conditions: for MIC Escherichia coli (ATCC 25922): strain ATCC 25922; for MIC Escherichia coli (GC 4559): strain GC 4559
Method in brief: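 Following NCCLS approved standard M7-A2, compounds are serially diluted from 64 to 0.06 μg/mL in Muller-Hinton II […] and inoculated at 5×10^5 CFU/mL; the MIC is the minimum concentration at which growth is inhibited.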

Staphylococcus sp. = conditions: broth dilution, 18 hours at 35° C.
Method in brief: (§1)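 Values are minimum inhibitory concentrations, meaning the smallest antibiotic concentration that stops growth of the organism. They come from broth dilution in Muller-Hinton II […] per NCCLS guidance (M7-A2), using 5×10^5 CFU/mL and concentrations from 64 to 0.06 μg/mL.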

Streptococcus sp. = conditions: for MIC Streptococcus pneumoniae (ATCC 6301): strain ATCC 6301; for MIC Streptococcus pneumoniae (GC 1894): strain GC 1894; for MIC Streptococcus pyogenes (GC 4563): strain GC 4563; for MIC Streptococcus agalactiae (GC 4564): strain GC 4564; for MIC Streptococcus pneumoniae (GC 4565): strain GC 4565
Method in brief: as §1

Enterococcus sp. = conditions: for MIC Enterococcus faecalis (ATCC 29212): strain ATCC 29212; for MIC Enterococcus faecalis (GC 2242): strain GC 2242; for MIC Enterococcus faecium (GC 2243): strain GC 2243; for MIC Enterococcus faecalis (GC 2691): strain GC 2691; for MIC Enterococcus faecalis (GC 3059): strain GC 3059; for MIC Enterococcus faecalis (GC 4552): strain GC 4552; for MIC Enterococcus faecalis (GC 4553): strain GC 4553; for MIC Enterococcus faecalis (GC 4554): strain GC 4554; for MIC Enterococcus faecium (GC 4556): strain GC 4556; for MIC Enterococcus faecium (GC 4557): strain GC 4557; for MIC Enterococcus avium (GC 4558): strain GC 4558; for MIC Enterococcus faecalis (GC 6189): strain GC 6189
Method in brief: as §1

## CCOc1cc(C2OCC3OC(OC4C(CO)OC(Oc5ccc(CC6NC(=O)C(C(C)c7ccccc7)NC(=O)CNC(=O)C(CO)NC(=O)C(C(O)C7CNC(=N)N7C7OC(CO)C(O)C(O)C7O)NC(=O)C(C(O)C7CNC(=N)N7)NC6=O)cc5)C(O)C4O)C(O)C(O)C3O2)ccc1OC (stereo not drawn) [Example 152, Cyclo[glycyl-β-methylphenylalanyl-O-[4-O-[4,6-O-(3-ethoxy-4-methoxybenzylidene)hexopyranosyl)hexopyranosyl]tyrosyl-3-(2-iminoimidazolidin-4-yl)seryl-3-(3-hexopyranosyl-2-iminoimidazolidin-4-yl)serylseryl]]
Escherichia coli
  MIC Escherichia coli (ATCC 25922): >64 µg/mL
  MIC Escherichia coli (GC 4559): >64 µg/mL
Escherichia coli; strain GC 4560
  MIC Escherichi coli (GC 4560): 8 µg/mL (≈ 5.49 µM)
Staphylococcus sp.; 5×10^5 CFU/mL
  MIC Coagulase Negative Staphylococcus (GC 4547): 8 µg/mL (≈ 5.49 µM)
  MIC Coagulase Negative Staphylococcus (GC 4548): 8 µg/mL (≈ 5.49 µM)
  MIC Coagulase Negative Staphylococcus (GC 4549): 8 µg/mL (≈ 5.49 µM)
  MIC Coagulase Negative Staphylococcus (GC 4551): 16 µg/mL (≈ 11 µM)
  MIC Coagulase Negative Staphylococcus (GC 6257): 8 µg/mL (≈ 5.49 µM)
  MIC Staphylococcus aureus (ATCC 29213): 16 µg/mL (≈ 11 µM)
  MIC Staphylococcus aureus (GC 1131): 16 µg/mL (≈ 11 µM)
  MIC Staphylococcus aureus (GC 3051): 16 µg/mL (≈ 11 µM)
  MIC Staphylococcus aureus (GC 3053): 32 µg/mL (≈ 22 µM)
  MIC Staphylococcus aureus (GC 4541): 16 µg/mL (≈ 11 µM)
  MIC Staphylococcus aureus (GC 4542): 16 µg/mL (≈ 11 µM)
  MIC Staphylococcus aureus (GC 4544): 16 µg/mL (≈ 11 µM)
  MIC Staphylococcus aureus (GC 4545): 8 µg/mL (≈ 5.49 µM)
  MIC Staphylococcus aureus-SMITH (GC 4543): 8 µg/mL (≈ 5.49 µM)
  MIC Staphylococcus haemolyticus (GC 4546): 8 µg/mL (≈ 5.49 µM)
Staphylococcus sp.; strain ATCC 29213
  MIC Staphylococcus aureus (ATCC 29213): 16 µg/mL (≈ 11 µM)
Staphylococcus sp.; strain GC 1131
  MIC Staphylococcus aureus (GC 1131): 16 µg/mL (≈ 11 µM)
Staphylococcus sp.; strain GC 3051
  MIC Staphylococcus aureus (GC 3051): 16 µg/mL (≈ 11 µM)
Staphylococcus sp.; strain GC 3053
  MIC Staphylococcus aureus (GC 3053): 32 µg/mL (≈ 22 µM)
Staphylococcus sp.; strain GC 4541
  MIC Staphylococcus aureus (GC 4541): 16 µg/mL (≈ 11 µM)
Staphylococcus sp.; strain GC 4542
  MIC Staphylococcus aureus (GC 4542): 16 µg/mL (≈ 11 µM)
Staphylococcus sp.; strain GC 4543
  MIC Staphylococcus aureus-SMITH (GC 4543): 8 µg/mL (≈ 5.49 µM)
Staphylococcus sp.; strain GC 4544
  MIC Staphylococcus aureus (GC 4544): 16 µg/mL (≈ 11 µM)
Staphylococcus sp.; strain GC 4545
  MIC Staphylococcus aureus (GC 4545): 8 µg/mL (≈ 5.49 µM)
Staphylococcus sp.; strain GC 4546
  MIC Staphylococcus haemolyticus (GC 4546): 8 µg/mL (≈ 5.49 µM)
Staphylococcus sp.; strain GC 4547
  MIC Coagulase Negative Staphylococcus (GC 4547): 8 µg/mL (≈ 5.49 µM)
Staphylococcus sp.; strain GC 4548
  MIC Coagulase Negative Staphylococcus (GC 4548): 8 µg/mL (≈ 5.49 µM)
Staphylococcus sp.; strain GC 4549
  MIC Coagulase Negative Staphylococcus (GC 4549): 8 µg/mL (≈ 5.49 µM)
Staphylococcus sp.; strain GC 4551
  MIC Coagulase Negative Staphylococcus (GC 4551): 16 µg/mL (≈ 11 µM)
Staphylococcus sp.; strain GC 6257
  MIC Coagulase Negative Staphylococcus (GC 6257): 8 µg/mL (≈ 5.49 µM)
Streptococcus sp.
  MIC Streptococcus pneumoniae (ATCC 6301): 2 µg/mL (≈ 1.37 µM)
  MIC Streptococcus pneumoniae (GC 1894): 0.5 µg/mL (≈ 0.343 µM)
  MIC Streptococcus pyogenes (GC 4563): 4 µg/mL (≈ 2.74 µM)
  MIC Streptococcus agalactiae (GC 4564): 8 µg/mL (≈ 5.49 µM)
  MIC Streptococcus pneumoniae (GC 4565): 2 µg/mL (≈ 1.37 µM)
Enterococcus sp.
  MIC Enterococcus faecalis (ATCC 29212): 32 µg/mL (≈ 22 µM)
  MIC Enterococcus faecalis (GC 2242): 32 µg/mL (≈ 22 µM)
  MIC Enterococcus faecium (GC 2243): 32 µg/mL (≈ 22 µM)
  MIC Enterococcus faecalis (GC 2691): 32 µg/mL (≈ 22 µM)
  MIC Enterococcus faecalis (GC 3059): 32 µg/mL (≈ 22 µM)
  MIC Enterococcus faecalis (GC 4552): 32 µg/mL (≈ 22 µM)
  MIC Enterococcus faecalis (GC 4553): 64 µg/mL (≈ 43.9 µM)
  MIC Enterococcus faecalis (GC 4554): 32 µg/mL (≈ 22 µM)
  MIC Enterococcus faecium (GC 4556): 32 µg/mL (≈ 22 µM)
  MIC Enterococcus faecium (GC 4557): 16 µg/mL (≈ 11 µM)
  MIC Enterococcus avium (GC 4558): 32 µg/mL (≈ 22 µM)
  MIC Enterococcus faecalis (GC 6189): 32 µg/mL (≈ 22 µM)

## COc1cc(C2OCC3OC(OC4C(CO)OC(Oc5ccc(CC6NC(=O)C(C(C)c7ccccc7)NC(=O)CNC(=O)C(CO)NC(=O)C(C(O)C7CNC(=N)N7C7OC(CO)C(O)C(O)C7O)NC(=O)C(C(O)C7CNC(=N)N7)NC6=O)cc5)C(O)C4O)C(O)C(O)C3O2)ccc1[N+](=O)[O-] (stereo not drawn) [Example 153, Cyclo[glycyl-β-methylphenylalanyl-O-[4-O-[4,6-O-(3-methoxy-4-nitrobenzylidene)hexopyranosyl]hexopyranosyl]tyrosyl-3-(2-iminoimidazolidin-4-yl)seryl-3-(3-hexopyranosyl-2-iminoimidazolidin-4-yl)serylseryl]]
Escherichia coli
  MIC Escherichia coli (ATCC 25922): 64 µg/mL (≈ 43.9 µM)
  MIC Escherichia coli (GC 4559): 64 µg/mL (≈ 43.9 µM)
Staphylococcus sp.; 5×10^5 CFU/mL
  MIC Coagulase Negative Staphylococcus (GC 4547): 1 µg/mL (≈ 0.686 µM)
  MIC Coagulase Negative Staphylococcus (GC 4548): 0.5 µg/mL (≈ 0.343 µM)
  MIC Coagulase Negative Staphylococcus (GC 4549): 0.5 µg/mL (≈ 0.343 µM)
  MIC Coagulase Negative Staphylococcus (GC 4551): 2 µg/mL (≈ 1.37 µM)
  MIC Coagulase Negative Staphylococcus (GC 6257): 0.5 µg/mL (≈ 0.343 µM)
  MIC Staphylococcus aureus (ATCC 29213): 2 µg/mL (≈ 1.37 µM)
  MIC Staphylococcus aureus (GC 1131): 2 µg/mL (≈ 1.37 µM)
  MIC Staphylococcus aureus (GC 3051): 2 µg/mL (≈ 1.37 µM)
  MIC Staphylococcus aureus (GC 3053): 4 µg/mL (≈ 2.74 µM)
  MIC Staphylococcus aureus (GC 4541): 2 µg/mL (≈ 1.37 µM)
  MIC Staphylococcus aureus (GC 4542): 2 µg/mL (≈ 1.37 µM)
  MIC Staphylococcus aureus (GC 4544): 2 µg/mL (≈ 1.37 µM)
  MIC Staphylococcus aureus (GC 4545): 2 µg/mL (≈ 1.37 µM)
  MIC Staphylococcus aureus-SMITH (GC 4543): 1 µg/mL (≈ 0.686 µM)
  MIC Staphylococcus haemolyticus (GC 4546): 1 µg/mL (≈ 0.686 µM)
Staphylococcus sp.; strain ATCC 29213
  MIC Staphylococcus aureus (ATCC 29213): 2 µg/mL (≈ 1.37 µM)
Staphylococcus sp.; strain GC 1131
  MIC Staphylococcus aureus (GC 1131): 2 µg/mL (≈ 1.37 µM)
Staphylococcus sp.; strain GC 3051
  MIC Staphylococcus aureus (GC 3051): 2 µg/mL (≈ 1.37 µM)
Staphylococcus sp.; strain GC 3053
  MIC Staphylococcus aureus (GC 3053): 4 µg/mL (≈ 2.74 µM)
Staphylococcus sp.; strain GC 4541
  MIC Staphylococcus aureus (GC 4541): 2 µg/mL (≈ 1.37 µM)
Staphylococcus sp.; strain GC 4542
  MIC Staphylococcus aureus (GC 4542): 2 µg/mL (≈ 1.37 µM)
Staphylococcus sp.; strain GC 4543
  MIC Staphylococcus aureus-SMITH (GC 4543): 1 µg/mL (≈ 0.686 µM)
Staphylococcus sp.; strain GC 4544
  MIC Staphylococcus aureus (GC 4544): 2 µg/mL (≈ 1.37 µM)
Staphylococcus sp.; strain GC 4545
  MIC Staphylococcus aureus (GC 4545): 2 µg/mL (≈ 1.37 µM)
Staphylococcus sp.; strain GC 4546
  MIC Staphylococcus haemolyticus (GC 4546): 1 µg/mL (≈ 0.686 µM)
Staphylococcus sp.; strain GC 4547
  MIC Coagulase Negative Staphylococcus (GC 4547): 1 µg/mL (≈ 0.686 µM)
Staphylococcus sp.; strain GC 4548
  MIC Coagulase Negative Staphylococcus (GC 4548): 0.5 µg/mL (≈ 0.343 µM)
Staphylococcus sp.; strain GC 4549
  MIC Coagulase Negative Staphylococcus (GC 4549): 0.5 µg/mL (≈ 0.343 µM)
Staphylococcus sp.; strain GC 4551
  MIC Coagulase Negative Staphylococcus (GC 4551): 2 µg/mL (≈ 1.37 µM)
Staphylococcus sp.; strain GC 6257
  MIC Coagulase Negative Staphylococcus (GC 6257): 0.5 µg/mL (≈ 0.343 µM)
Streptococcus sp.
  MIC Streptococcus pneumoniae (ATCC 6301): <0.06 µg/mL
  MIC Streptococcus pneumoniae (GC 1894): <0.06 µg/mL
  MIC Streptococcus pyogenes (GC 4563): 0.25 µg/mL (≈ 0.171 µM)
  MIC Streptococcus agalactiae (GC 4564): 0.5 µg/mL (≈ 0.343 µM)
  MIC Streptococcus pneumoniae (GC 4565): <0.06 µg/mL
Enterococcus sp.
  MIC Enterococcus faecalis (ATCC 29212): 8 µg/mL (≈ 5.49 µM)
  MIC Enterococcus faecalis (GC 2242): 4 µg/mL (≈ 2.74 µM)
  MIC Enterococcus faecium (GC 2243): 4 µg/mL (≈ 2.74 µM)
  MIC Enterococcus faecalis (GC 2691): 8 µg/mL (≈ 5.49 µM)
  MIC Enterococcus faecalis (GC 3059): 8 µg/mL (≈ 5.49 µM)
  MIC Enterococcus faecalis (GC 4552): 8 µg/mL (≈ 5.49 µM)
  MIC Enterococcus faecalis (GC 4553): 8 µg/mL (≈ 5.49 µM)
  MIC Enterococcus faecalis (GC 4554): 8 µg/mL (≈ 5.49 µM)
  MIC Enterococcus faecium (GC 4556): 4 µg/mL (≈ 2.74 µM)
  MIC Enterococcus faecium (GC 4557): 2 µg/mL (≈ 1.37 µM)
  MIC Enterococcus avium (GC 4558): 8 µg/mL (≈ 5.49 µM)
  MIC Enterococcus faecalis (GC 6189): 4 µg/mL (≈ 2.74 µM)
